# According to patent US12077503B2, “Substituted cyclic amides and their use as herbicides” (FMC CORPORATION, priority 2015, dated 2024):
# Assays:
# Type in all cases: in vivo
# [1] = system: giant foxtail (Setaria faberii); test: Test A preemergence; details: Setaria faberi, pre-emergence, 240 h, 0 to 100 scale where 0 is no effect and 100 is complete control, read-out: Foxtail, Giant plant response rating; for pest or weed control at 31 g/ha: 31 g ai/ha, Preemergence; for pest or weed control at 125 g/ha: 125 g ai/ha, preemergence, visual injury rating, approximately 10 d
# In short: (§1)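 Visual injury, scored on a 0–100 scale relative to untreated controls, was recorded about 10 d after application. Treatments were a preemergence soil spray over planted seeds or a postemergence spray on plants at the one- to two-leaf stage, 2 to 10 cm tall, all in loam soil–sand blend in the greenhouse.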
# [2] = system: pigweed (Amaranthus retroflexus); test: Test A preemergence; details: Amaranthus retroflexus, pre-emergence, 240 h, 0 to 100 scale where 0 is no effect and 100 is complete control, read-out: Pigweed plant response rating; for pest or weed control at 31 g/ha: 31 g ai/ha, Preemergence; for pest or weed control at 125 g/ha: 125 g ai/ha, preemergence, visual injury rating, approximately 10 d
# [3] = system: ryegrass, Italian (Italian ryegrass, Lolium multiflorum); test: Test A preemergence; details: Lolium multiflorum, pre-emergence, 240 h, 0 to 100 scale where 0 is no effect and 100 is complete control, read-out: Ryegrass, Italian plant response rating; for pest or weed control at 31 g/ha: 31 g ai/ha, Preemergence; for pest or weed control at 125 g/ha: 125 g ai/ha, preemergence, visual injury rating, approximately 10 d
# In short: as §1
# [4] = system: ragweed (common ragweed, Ambrosia elatior); test: Test A preemergence; details: Ambrosia artemisiifolia, pre-emergence, 240 h, 0 to 100 scale where 0 is no effect and 100 is complete control, read-out: Ragweed plant response rating; for pest or weed control at 31 g/ha: 31 g ai/ha, Preemergence; for pest or weed control at 125 g/ha: 125 g ai/ha, preemergence, visual injury rating, approximately 10 d
# In short: as §1
# Kochia (Kochia scoparia) [5] = test: Test A preemergence; details: Bassia scoparia, pre-emergence, 240 h, 0 to 100 scale where 0 is no effect and 100 is complete control, read-out: Kochia plant response rating; for pest or weed control at 31 g/ha: 31 g ai/ha, Preemergence; for pest or weed control at 125 g/ha: 125 g ai/ha, preemergence, visual injury rating, approximately 10 d
# In short: as §1
# [6] = system: barnyardgrass (Echinochloa crus-galli); test: Test A preemergence; details: Echinochloa crus-galli, pre-emergence, 240 h, 0 to 100 scale where 0 is no effect and 100 is complete control, read-out: Barnyardgrass plant response rating; for pest or weed control at 31 g/ha: 31 g ai/ha, Preemergence; for pest or weed control at 125 g/ha: 125 g ai/ha, preemergence, visual injury rating, approximately 10 d
# In short: as §1
# [7] = system: giant foxtail (Setaria faberii); test: Test A postemergence; details: Setaria faberi, post-emergence, 240 h, read-out: Foxtail, Giant plant response rating (0 to 100 scale); for pest or weed control at 125 g/ha: 125 g ai/ha, postemergence, visual injury vs untreated controls after approx. 10 d, 0 = no effect, 100 = complete control; for pest or weed control at 31 g/ha: Postemergence, 31 g ai/ha, 0 is no effect, 100 is complete control
# In short: as §1
# [8] = system: blackgrass (Alopecurus myosuroides); test: Test A postemergence; details: Alopecurus myosuroides, post-emergence, 240 h, read-out: Blackgrass plant response rating (0 to 100 scale); for pest or weed control at 125 g/ha: 125 g ai/ha, postemergence, visual injury vs untreated controls after approx. 10 d, 0 = no effect, 100 = complete control; for pest or weed control at 31 g/ha: Postemergence, 31 g ai/ha, 0 is no effect, 100 is complete control
# In short: as §1
# [9] = system: pigweed (Amaranthus retroflexus); test: Test A postemergence; details: Amaranthus retroflexus, post-emergence, 240 h, read-out: Pigweed plant response rating (0 to 100 scale); for pest or weed control at 125 g/ha: 125 g ai/ha, postemergence, visual injury vs untreated controls after approx. 10 d, 0 = no effect, 100 = complete control; for pest or weed control at 31 g/ha: Postemergence, 31 g ai/ha, 0 is no effect, 100 is complete control
# In short: as §1
# [10] = system: ryegrass, Italian (Italian ryegrass, Lolium multiflorum); test: Test A postemergence; details: Lolium multiflorum, post-emergence, 240 h, read-out: Ryegrass, Italian plant response rating (0 to 100 scale); for pest or weed control at 125 g/ha: 125 g ai/ha, postemergence, visual injury vs untreated controls after approx. 10 d, 0 = no effect, 100 = complete control; for pest or weed control at 31 g/ha: Postemergence, 31 g ai/ha, 0 is no effect, 100 is complete control
# In short: as §1
# [11] = system: ragweed (common ragweed, Ambrosia elatior); test: Test A postemergence; details: Ambrosia artemisiifolia, post-emergence, 240 h, read-out: Ragweed plant response rating (0 to 100 scale); for pest or weed control at 125 g/ha: 125 g ai/ha, postemergence, visual injury vs untreated controls after approx. 10 d, 0 = no effect, 100 = complete control; for pest or weed control at 31 g/ha: Postemergence, 31 g ai/ha, 0 is no effect, 100 is complete control
# In short: as §1
# [12] = system: Galium (catchweed bedstraw, Galium aparine); test: Test A postemergence; details: Galium, post-emergence, 240 h, read-out: Galium plant response rating (0 to 100 scale); for pest or weed control at 125 g/ha: 125 g ai/ha, postemergence, visual injury vs untreated controls after approx. 10 d, 0 = no effect, 100 = complete control; for pest or weed control at 31 g/ha: Postemergence, 31 g ai/ha, 0 is no effect, 100 is complete control
# In short: as §1
# [13] = system: wheat (Triticum aestivum); test: Test A postemergence; details: Triticum aestivum, post-emergence, 240 h, read-out: Wheat plant response rating (0 to 100 scale); for plant injury at 125 g/ha: 125 g ai/ha, postemergence, visual injury vs untreated controls after approx. 10 d, 0 = no effect, 100 = complete control; for plant injury at 31 g/ha: Postemergence, 31 g ai/ha, 0 is no effect, 100 is complete control
# In short: as §1
# Kochia (Kochia scoparia) [14] = test: Test A postemergence; details: Bassia scoparia, post-emergence, 240 h, read-out: Kochia plant response rating (0 to 100 scale); for pest or weed control at 125 g/ha: 125 g ai/ha, postemergence, visual injury vs untreated controls after approx. 10 d, 0 = no effect, 100 = complete control; for pest or weed control at 31 g/ha: Postemergence, 31 g ai/ha, 0 is no effect, 100 is complete control
# In short: as §1
# corn (Zea mays) = test: Test A postemergence; details: Zea mays, post-emergence, 240 h, read-out: Corn plant response rating (0 to 100 scale); for plant injury at 125 g/ha: 125 g ai/ha, postemergence, visual injury vs untreated controls after approx. 10 d, 0 = no effect, 100 = complete control; for plant injury at 31 g/ha: Postemergence, 31 g ai/ha, 0 is no effect, 100 is complete control
# In short: as §1
# [15] = system: barnyardgrass (Echinochloa crus-galli); test: Test A postemergence; details: Echinochloa crus-galli, post-emergence, 240 h, read-out: Barnyardgrass plant response rating (0 to 100 scale); for pest or weed control at 125 g/ha: 125 g ai/ha, postemergence, visual injury vs untreated controls after approx. 10 d, 0 = no effect, 100 = complete control; for pest or weed control at 31 g/ha: Postemergence, 31 g ai/ha, 0 is no effect, 100 is complete control
# In short: as §1
# [16] = system: sedge, umbrella (small-flower umbrella sedge, Cyperus difformis); test: Test B flooded paddy test; details: Cyperus difformis, 250 g ai/ha, Flood; 0 to 100 scale where 0 is no effect and 100 is complete control; read-out: Sedge, Umbrella plant response rating
# In short: (§2)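 Response scored visually against untreated controls, 0 = no effect and 100 = complete control, 13–15 d after treatment in the greenhouse. Compounds added to paddy water held 3 cm above soil surface. Treatment given at 2-leaf stage.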
# rice (Oryra sativa) = test: Test B flooded paddy test; details: Oryza sativa, 250 g ai/ha, Flood; 0 to 100 scale where 0 is no effect and 100 is complete control; read-out: Rice plant response rating
# In short: as §2
# [17] = system: ducksalad (Heteranthera limosa); test: Test B flooded paddy test; details: Heteranthera limosa, 250 g ai/ha, Flood; 0 to 100 scale where 0 is no effect and 100 is complete control; read-out: Ducksalad plant response rating
# In short: as §2
# [18] = system: barnyardgrass (Echinochloa crus-galli); test: Test B flooded paddy test; details: Echinochloa crus-galli, 250 g ai/ha, Flood; 0 to 100 scale where 0 is no effect and 100 is complete control; read-out: Barnyardgrass plant response rating
# In short: as §2
structure (smiles),measurement,setting,value
Cc1ccc([C@H]2CN(C)C(=O)[C@@H]2C(=O)Nc2cccc(F)c2C#N)cc1 [Compound 1189],pest or weed control at 31 g/ha,[1],90%
same,pest or weed control at 125 g/ha,[1],100%
same,pest or weed control at 31 g/ha,[2],0%
same,pest or weed control at 125 g/ha,[2],40%
same,pest or weed control at 31 g/ha,[3],20%
same,pest or weed control at 125 g/ha,[3],60%
same,pest or weed control at 31 g/ha,[4],0%
same,pest or weed control at 125 g/ha,[4],50%
same,pest or weed control at 31 g/ha,Kochia (Kochia scoparia) [5],40%
same,pest or weed control at 125 g/ha,Kochia (Kochia scoparia) [5],70%
same,pest or weed control at 31 g/ha,[6],90%
same,pest or weed control at 125 g/ha,[6],100%
same,pest or weed control at 125 g/ha,[7],80%
same,pest or weed control at 31 g/ha,[7],70%
same,pest or weed control at 125 g/ha,[8],40%
same,pest or weed control at 31 g/ha,[8],20%
same,pest or weed control at 125 g/ha,[9],0%
same,pest or weed control at 31 g/ha,[9],0%
same,pest or weed control at 125 g/ha,[10],20%
same,pest or weed control at 31 g/ha,[10],0%
same,pest or weed control at 125 g/ha,[11],40%
same,pest or weed control at 31 g/ha,[11],0%
same,pest or weed control at 125 g/ha,[12],50%
same,pest or weed control at 31 g/ha,[12],30%
same,plant injury at 125 g/ha,[13],20%
same,plant injury at 31 g/ha,[13],0%
same,pest or weed control at 125 g/ha,Kochia (Kochia scoparia) [14],20%
same,pest or weed control at 31 g/ha,Kochia (Kochia scoparia) [14],0%
same,plant injury at 125 g/ha,corn (Zea mays),20%
same,plant injury at 31 g/ha,corn (Zea mays),0%
same,pest or weed control at 125 g/ha,[15],100%
same,pest or weed control at 31 g/ha,[15],70%
same,pest or weed control at 250 g/ha,[16],0%
same,pest or weed control at 250 g/ha,rice (Oryra sativa),15%
same,pest or weed control at 250 g/ha,[17],100%
same,pest or weed control at 250 g/ha,[18],75%
N#Cc1ccc([C@H]2CNC(=O)[C@@H]2C(=O)Nc2ccccc2F)cc1F [Compound 1191],pest or weed control at 31 g/ha,[1],0%
same,pest or weed control at 125 g/ha,[1],0%
same,pest or weed control at 31 g/ha,[2],0%
same,pest or weed control at 125 g/ha,[2],0%
same,pest or weed control at 31 g/ha,[3],0%
same,pest or weed control at 125 g/ha,[3],0%
same,pest or weed control at 31 g/ha,[4],0%
same,pest or weed control at 125 g/ha,[4],0%
same,pest or weed control at 31 g/ha,Kochia (Kochia scoparia) [5],0%
same,pest or weed control at 125 g/ha,Kochia (Kochia scoparia) [5],0%
same,pest or weed control at 31 g/ha,[6],0%
same,pest or weed control at 125 g/ha,[6],0%
same,pest or weed control at 125 g/ha,[7],0%
same,pest or weed control at 31 g/ha,[7],0%
same,pest or weed control at 125 g/ha,[8],0%
same,pest or weed control at 31 g/ha,[8],0%
same,pest or weed control at 125 g/ha,[9],0%
same,pest or weed control at 31 g/ha,[9],0%
same,pest or weed control at 125 g/ha,[10],0%
same,pest or weed control at 31 g/ha,[10],0%
same,pest or weed control at 125 g/ha,[11],0%
same,pest or weed control at 31 g/ha,[11],0%
same,pest or weed control at 125 g/ha,[12],0%
same,pest or weed control at 31 g/ha,[12],0%
same,plant injury at 125 g/ha,[13],0%
same,plant injury at 31 g/ha,[13],0%
same,pest or weed control at 125 g/ha,Kochia (Kochia scoparia) [14],0%
same,pest or weed control at 31 g/ha,Kochia (Kochia scoparia) [14],0%
same,plant injury at 125 g/ha,corn (Zea mays),0%
same,plant injury at 31 g/ha,corn (Zea mays),0%
same,pest or weed control at 125 g/ha,[15],0%
same,pest or weed control at 31 g/ha,[15],0%
same,pest or weed control at 250 g/ha,[16],0%
same,pest or weed control at 250 g/ha,rice (Oryra sativa),10%
same,pest or weed control at 250 g/ha,[17],90%
same,pest or weed control at 250 g/ha,[18],0%
